Measured values as given in PMC4815073, “Targeting of tubulin polymerization and induction of mitotic blockage by Methyl 2-(5-fluoro-2-hydroxyphenyl)-1H-benzo[d]imidazole-5-carboxylate (MBIC) in human cervical cancer HeLa cell” (Journal of Experimental & Clinical Cancer Research : CR, 2016).

Key:
[1] = test system: HeLa cells; assay: Annexin V-FITC/PI apoptosis detection by flow cytometry; assay type: cell-based, human; settings: 24 h
Experimental: (§1) Apoptosis was detected using BD Pharmingen Annexin V-FITC Apoptosis Detection Kit as per manufacturer’s protocol. Briefly, cells were seeded in 25 cm^2 culture flasks (10 × 10^5 cells/flask) and were treated in 3 different MBIC concentrations for 24 and 48 h. Later, treated cells were harvested and washed with 1 ml of 1X Phosphate Buffered-Saline (PBS) before adding 200 μl 1X annexin-binding buffer. 10 μl of annexin V-FITC and 10 μl of PI were added to each 200 μl of cell suspension. Cells were then incubated in total darkness for 15 min at room temperature. 500 μl of 1X annexin-binding buffer was added just before the flow cytometry analysis.

[2] = as above; assay type: cell-based, human; settings: human, HeLa cells, read-out: viable cells (Q3, annexin V- PI-)
Experimental: as §1

[3] = test system: HeLa cells; assay: Multiparameter cytotoxicity assay (Cellomics HCS); assay type: cell-based, human; settings: 24 h
Experimental: The critical apoptotic events in cervical cancer including cell permeability, mitochondrial membrane potential (MMP), cytochrome c release and total nuclear intensity after treatment with MBIC were determined using the Cellomics Multiparameter Cytotoxicity 3 Kit. Briefly, 1 × 10 ^4 cells/well were seeded in a 96-well plate and incubated for 24 h prior to treatment with MBIC at various concentrations. At 24 h post treatment, cells were stained with cell permeability and MMP dye and further incubated for 1 h. Stained cells were fixed and permeabilized with 4 % formaldehyde and 0.1 % Triton X-100 in PBS, respectively. Cells were washed twice with 1X PBS prior to blocking with 3 % bovine serum albumin.
Cells were rinsed twice with Wash Buffer I (1X PBS) and incubated with 50 μl/well of Cytochrome c primary antibody. After 60 min, the plate was washed with 1X Wash Buffer and subsequently, 50 μl of goat anti-mouse secondary antibodies conjugated with DyLight 649 were added into each well. Cells were rinsed twice with Wash Buffer I (1X PBS). Hoechst 33342 was added into the staining solution to stain the nucleus. Stained cells in the 96-well plates were analyzed using ArrayScan High Content Screening (HCS) system (Thermo Scientific, USA).

[4] = test system: HepG-2 cells; assay: MTT cytotoxicity assay, HepG-2; assay type: cell-based, human; settings: for IC50: Homo sapiens, HepG2, MTT
From the text: (§2) The human cervical cancer cell-line, HeLa (CCL-2.2; ATCC, Manassas, VA), HCT-116 (CCL-247; ATCC, Manassas, VA), A549 (CCL-185; ATCC, Manassas, VA), HepG-2 (HB-8065; ATCC, Manassas, VA) and WRL-68 (CL-48; ATCC, Manassas, VA), were obtained from American Type Culture Collection (ATCC). HeLa, A549, HepG2 and WRL68 cells were maintained in Dulbecco’s Modified Eagle Medium (DMEM, Life Technologies, Inc, Rockville, MD). HCT-116 was obtained in McCoy’s 5a Medium Modified (Life Technologies, Inc, Rockville, MD) supplemented with 10 % fetal bovine serum and 1 % penicillin/streptomycin. Cells were incubated at 37 °C in a humidified cell culture 5 % CO2 incubator. Cells were passaged until reaching 70-80-% confluency for experimental purposes.
(§3) Cytotoxicity of MBIC was estimated by MTT assay. Briefly, 1 × 10^4 cells/well were seeded in a 96-well plate and incubated at 37 °C in 5 % CO2. After 24 h, cells were treated with different concentrations (0.02, 0.04, 0.1, 0.2, 0.4, 0.8, 1.5, 3, 6, 12, 25, 50 μM) of MBIC. 0.01 % DMSO was used as vehicle control. Cells were incubated for 24 and 48 h at 37 °C. Subsequently, 50 μl/well of 3-(4,5-dimethylthiazol-2-yl)-2,5-diphenyltetrazolium bromide (MTT, 2 mg/ml) was added and incubated for 2 h. After the incubation, the media was discarded and 100 μl DMSO was replaced into each well to dissolve the formazan crystal. The colorimetric assay was quantified at 570 nm wavelength using Chameleon V microplate reader (Hidex, Turku, Finland). The anti-proliferation activity of MBIC was expressed as an IC50 value. The percentage of cell viability was calculated as described previously.

[5] = test system: HeLa cells; assay: MTT cytotoxicity assay, HeLa; assay type: cell-based, human; settings: for IC50: Homo sapiens, HeLa, MTT; for SI (Selectivity Index): IC50 WRL-68 / IC50 HeLa
From the text: as §2, §3

[6] = test system: A549 cells; assay: MTT cytotoxicity assay, A549; assay type: cell-based, human; settings: for IC50: Homo sapiens, MTT
From the text: as §2, §3

[7] = test system: HCT-116 cells; assay: MTT cytotoxicity assay, HCT-116; assay type: cell-based, human; settings: for IC50: Homo sapiens, MTT
From the text: as §2, §3

[8] = test system: human cancer cell lines (HCT-116, A549, HepG-2, HeLa); assay: MTT cytotoxicity assay, human cancer cell lines taken together; assay type: cell-based
From the text: as §2
as §3, with “Subsequently, 50 μl/well of 3-(4,5-dimethylthiazol-2-yl)-2,5-diphenyltetrazolium bromide (MTT, 2 mg/ml) was added and incubated for 2 h. After the incubation, the media was discarded and 100 μl DMSO was replaced into each well to dissolve the formazan crystal.” left out

## COC(=O)c1ccc2[nH]c(-c3cc(F)ccc3O)nc2c1 [MBIC, Methyl 2-(5-fluoro-2-hydroxyphenyl)-1H-benzo[d]imidazole-5-carboxylate]
[1]; 0.21 μM
  late apoptotic cells (Q2, annexin V+ PI+): 44.8 ± 2.3%
[1]; 1 μM
  late apoptotic cells (Q2, annexin V+ PI+): 74.8 ± 4.2%
[2]; 0.21 μM
  viability at 24 h, 0.21 µM: 48.8%
[2]; 0.42 μM
  viability at 24 h, 0.42 µM: 36.2%
[2]; 1 μM
  viability at 24 h, 1 µM: 17.4%
[3]; 0.2 and 0.4 μM
  cytochrome c release: considerable elevation
[3]; 0.2 and 0.42 μM
  cell number (loss of cells): dose-dependent loss of cells
  membrane permeability: increase of membrane permeability
  mitochondrial membrane potential (MMP, Δψm): exhaustion of MMP
[4]; HepG-2, 24 hours
  IC50: 2920 ± 100 nM
[4]; HepG-2, 48 hours
  IC50: 1030 ± 90 nM
[4]; IC50 WRL-68 / IC50 HepG-2, 24 hours
  SI (Selectivity Index): 3.45
[4]; IC50 WRL-68 / IC50 HepG-2, 48 hours
  SI (Selectivity Index): 6.95
[5]; 24 hours
  IC50: 210 ± 20 nM
  SI (Selectivity Index): 48.04
[5]; 48 hours
  IC50: 190 ± 30 nM
  SI (Selectivity Index): 37.68
[5]; versus WRL-68, 24 and 48 h
  selectivity in HeLa cells: > 30 fold
[6]; A549, 24 hours
  IC50: 1290 ± 70 nM
[6]; A549, 48 hours
  IC50: 530 ± 100 nM
[6]; IC50 WRL-68 / IC50 A549, 24 hours
  SI (Selectivity Index): 7.82
[6]; IC50 WRL-68 / IC50 A549, 48 hours
  SI (Selectivity Index): 13.50
[7]; HCT-116, 24 hours
  IC50: 2720 ± 400 nM
[7]; HCT-116, 48 hours
  IC50: 2010 ± 300 nM
[7]; IC50 WRL-68 / IC50 HCT-116, 24 hours
  SI (Selectivity Index): 3.70
[7]; IC50 WRL-68 / IC50 HCT-116, 48 hours
  SI (Selectivity Index): 3.56
[8]
  IC50: < 5000 nM
